# Biological target: GCN2 (Homo sapiens, UniProt Q9P2K8)
# Experiment: TR-FRET biochemical assay for inhibition of GCN2 (Example 106, for Example 1-4BB)
# Details: Table 8
# GCN2, sequence (Q9P2K8 whole entry): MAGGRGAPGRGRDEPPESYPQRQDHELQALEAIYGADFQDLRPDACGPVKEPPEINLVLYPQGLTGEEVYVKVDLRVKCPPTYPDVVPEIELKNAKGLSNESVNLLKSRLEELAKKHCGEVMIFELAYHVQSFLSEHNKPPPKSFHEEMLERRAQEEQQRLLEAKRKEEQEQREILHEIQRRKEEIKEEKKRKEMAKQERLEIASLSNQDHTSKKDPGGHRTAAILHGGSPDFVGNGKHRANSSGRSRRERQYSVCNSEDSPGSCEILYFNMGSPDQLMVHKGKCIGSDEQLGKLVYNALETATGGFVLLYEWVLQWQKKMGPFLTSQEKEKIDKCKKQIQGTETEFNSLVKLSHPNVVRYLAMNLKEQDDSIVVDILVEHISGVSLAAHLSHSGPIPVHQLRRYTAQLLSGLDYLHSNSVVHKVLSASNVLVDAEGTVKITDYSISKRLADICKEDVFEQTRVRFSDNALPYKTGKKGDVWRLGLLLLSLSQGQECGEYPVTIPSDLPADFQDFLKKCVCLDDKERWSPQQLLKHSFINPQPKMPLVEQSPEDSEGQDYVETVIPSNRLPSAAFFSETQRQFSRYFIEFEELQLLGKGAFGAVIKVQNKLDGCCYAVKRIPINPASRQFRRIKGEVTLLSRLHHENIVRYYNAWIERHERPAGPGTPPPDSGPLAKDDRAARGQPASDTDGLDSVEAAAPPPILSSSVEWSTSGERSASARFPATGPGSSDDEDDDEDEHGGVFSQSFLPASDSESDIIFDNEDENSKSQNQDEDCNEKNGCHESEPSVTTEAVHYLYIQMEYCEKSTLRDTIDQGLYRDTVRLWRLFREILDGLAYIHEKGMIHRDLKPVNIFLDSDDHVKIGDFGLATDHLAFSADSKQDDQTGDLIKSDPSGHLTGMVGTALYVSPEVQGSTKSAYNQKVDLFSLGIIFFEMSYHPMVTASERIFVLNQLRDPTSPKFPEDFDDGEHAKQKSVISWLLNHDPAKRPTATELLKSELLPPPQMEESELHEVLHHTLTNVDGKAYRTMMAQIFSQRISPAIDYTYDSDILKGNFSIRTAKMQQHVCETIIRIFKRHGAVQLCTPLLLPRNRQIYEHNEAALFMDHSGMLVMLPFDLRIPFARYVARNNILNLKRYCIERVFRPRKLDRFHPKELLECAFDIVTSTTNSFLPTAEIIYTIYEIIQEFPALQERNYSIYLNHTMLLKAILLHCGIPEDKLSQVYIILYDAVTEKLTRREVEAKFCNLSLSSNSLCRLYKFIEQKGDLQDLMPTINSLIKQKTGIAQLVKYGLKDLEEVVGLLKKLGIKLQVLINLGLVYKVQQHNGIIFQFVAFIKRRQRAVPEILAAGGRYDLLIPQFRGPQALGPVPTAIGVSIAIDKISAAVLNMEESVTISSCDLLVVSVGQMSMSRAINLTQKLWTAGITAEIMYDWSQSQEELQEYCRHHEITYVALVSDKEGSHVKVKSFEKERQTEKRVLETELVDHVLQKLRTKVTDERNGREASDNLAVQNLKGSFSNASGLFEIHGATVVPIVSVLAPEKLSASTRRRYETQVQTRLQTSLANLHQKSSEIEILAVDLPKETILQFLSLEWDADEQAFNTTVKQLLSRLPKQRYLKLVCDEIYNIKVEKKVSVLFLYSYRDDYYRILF
smiles,measurement,value
"O=S(=O)(Nc1ccc(F)c(-c2ccc3c(-c4ncc[nH]4)n[nH]c3c2F)c1F)c1cc(Cl)ccc1F [Example 2BD, 5-chloro-N-(2,4-difluoro-3-(7-fluoro-3-(1H-imidazol-2-yl)-1H-indazol-6-yl)phenyl)-2-fluorobenzenesulfonamide]",IC50,< 500 nM
"COc1ccccc1S(=O)(=O)Nc1ccc(F)c(-c2ccc3c(-c4ncc[nH]4)n[nH]c3c2F)c1F [Example 2BF, N-(2,4-difluoro-3-(7-fIuoro-3-(1H-imidazol-2-yl)-1H-indazol-6-yl)phenyl)-2-methoxybenzenesulfonamide]",IC50,500 to 2500 nM
"O=S(=O)(Nc1ccc(F)c(-c2ccc3c(-c4ncc[nH]4)n[nH]c3c2F)c1F)c1c(F)cccc1F [Example 2BG, N-(2,4-difluoro-3-(7-fluoro-3-(1H-imidazol-2-yl)-1H-indazol-6-yl)phenyl)-2,6-difluorobenzenesulfonamide]",IC50,< 500 nM
"O=S(=O)(Nc1ccc(F)c(-c2ccc3c(-c4ncc[nH]4)n[nH]c3c2F)c1F)c1cc(F)ccc1F [Example 2BH, N-(2,4-difluoro-3-(7-fluoro-3-(1H-imidazol-2-yl)-1H-indazol-6-yl)phenyl)-2,5-difluorobenzenesulfonamide]",IC50,< 500 nM
"Cc1ccc(C)c(S(=O)(=O)Nc2ccc(F)c(-c3ccc4c(-c5ncc[nH]5)n[nH]c4c3F)c2F)c1 [Example 2BI, N-(2,4-difluoro-3-(7-fluoro-3-(1H-imidazol-2-yl)-1H-indazol-6-yl)phenyl)-2,5-dimethylbenzenesulfonamide]",IC50,< 500 nM
"Cc1ccc(F)cc1S(=O)(=O)Nc1ccc(F)c(-c2ccc3c(-c4ncc[nH]4)n[nH]c3c2F)c1F [Example 2BJ, N-(2,4-difluoro-3-(7-fluoro-3-(1H-imidazol-2-yl)-1H-indazol-6-yl)phenyl)-5-fluoro-2-methylbenzenesulfonamide]",IC50,< 500 nM
"N#Cc1ccccc1S(=O)(=O)Nc1ccc(F)c(-c2ccc3c(-c4ncc[nH]4)n[nH]c3c2F)c1F [Example 2BK, 2-cyano-N-(2,4-difluoro-3-(7-fluoro-3-(1H-imidazol-2-yl)-1H-indazol-6-yl)phenyl)-benzenesulfonamide]",IC50,< 500 nM
"O=S(=O)(Nc1ccc(F)c(-c2ccc3c(-c4ncc[nH]4)n[nH]c3c2F)c1F)c1cccc(Cl)c1Cl [Example 2BL, 2,3-dichloro-N-(2,4-difluoro-3-(7-fluoro-3-(1H-imidazol-2-yl)-1H-indazol-6-yl)phenyl)-benzenesulfonamide]",IC50,< 500 nM
"O=S(=O)(Nc1ccc(F)c(-c2ccc3c(-c4ncc[nH]4)n[nH]c3c2F)c1F)c1cccnc1Cl [Example 2BM, 2-chloro-N-(2,4-difluoro-3-(7-fluoro-3-(1H-imidazol-2-yl)-1H-indazol-6-yl)phenyl)-pyridine-3-sulfonamide]",IC50,< 500 nM
"O=S(=O)(Nc1ccc(F)c(-c2ccc3c(-c4ncc[nH]4)n[nH]c3c2F)c1F)c1ccc(Cl)cc1Cl [Example 2BN, 2,4-dichloro-N-(2,4-difluoro-3-(7-fluoro-3-(1H-imidazol-2-yl)-1H-indazol-6-yl)phenyl)-benzenesulfonamide]",IC50,< 500 nM
"O=S(=O)(Nc1ccc(F)c(-c2ccc3c(-c4ncc[nH]4)n[nH]c3c2F)c1F)c1ccc(F)c(F)c1 [Example 2BO, N-(2,4-difluoro-3-(7-fluoro-3-(1H-imidazol-2-yl)-1H-indazol-6-yl)phenyl)-3,4-difluorobenzenesulfonamide]",IC50,500 to 2500 nM
"O=S(=O)(Nc1ccc(F)c(-c2ccc3c(-c4ncc[nH]4)n[nH]c3c2F)c1F)c1ccccc1Cl [Example 2BP, 2-chloro-N-(2,4-difluoro-3-(7-fluoro-3-(1H-imidazol-2-yl)-1H-indazol-6-yl)phenyl)-benzenesulfonamide]",IC50,< 500 nM
"N#Cc1cccc(S(=O)(=O)Nc2ccc(F)c(-c3ccc4c(-c5ncc[nH]5)n[nH]c4c3F)c2F)c1 [Example 2BQ, 3-cyano-N-(2,4-difluoro-3-(7-fluoro-3-(1H-imidazol-2-yl)-1H-indazol-6-yl)phenyl)-benzenesulfonamide]",IC50,< 500 nM
"Cc1ccccc1S(=O)(=O)Nc1ccc(F)c(-c2ccc3c(-c4ncc[nH]4)n[nH]c3c2F)c1F [Example 2BR, N-(2,4-difluoro-3-(7-fluoro-3-(1H-imidazol-2-yl)-1H-indazol-6-yl)phenyl)-2-methylbenzenesulfonamide]",IC50,< 500 nM
O=S(=O)(Nc1ccc(F)c(-c2ccc3c(-c4ncc[nH]4)n[nH]c3c2F)c1F)c1ccc(F)cc1Cl [Example 2BS],IC50,< 500 nM
"O=S(=O)(Nc1ccc(F)c(-c2ccc3c(-c4ncc[nH]4)n[nH]c3c2F)c1F)c1ccccc1F [Example 2BT, N-(2,4-difluoro-3-(7-fluoro-3-(1H-imidazol-2-yl)-1H-indazol-6-yl)phenyl)-2-fluorobenzenesulfonamide]",IC50,< 500 nM
"Cc1nn(C(F)F)cc1S(=O)(=O)Nc1ccc(F)c(-c2ccc3c(-c4ncc[nH]4)n[nH]c3c2F)c1F [Example 2BU, N-(2,4-difluoro-3-(7-fluoro-3-(1H-imidazol-2-yl)-1H-indazol-6-yl)phenyl)-1-(difluoromethyl)-3-methyl-1H-pyrazole-4-sulfonamide]",IC50,< 500 nM
"O=S(=O)(Nc1ccc(F)c(-c2ccc3c(-c4ncc[nH]4)n[nH]c3c2F)c1F)c1ccccc1 [Example 2BV, N-(2,4-difluoro-3-(7-fluoro-3-(1H-imidazol-2-yl)-1H-indazol-6-yl)phenyl)benzene-sulfonamide]",IC50,500 to 2500 nM
"O=S(=O)(Nc1ccc(F)c(-c2ccc3c(-c4ncc[nH]4)n[nH]c3c2F)c1F)c1cc(Cl)ccc1CO [Example 2BW, 5-chloro-N-(2,4-difluoro-3-(7-fluoro-3-(1H-imidazol-2-yl)-1H-indazol-6-yl)phenyl)-2-(hydroxyl-methyl)benzene-sulfonamide]",IC50,< 500 nM
"O=S(=O)(Nc1ccc(F)c(-c2ccc3cn[nH]c3c2)c1F)c1cc(Cl)ccc1Cl [Example 2BX, 2,5-dichloro-N-(2,4-difluoro-3-(1H-indazol-6-yl)phenyl)benzenesulfonamide]",IC50,500 to 2500 nM
"COc1ncc(Cl)cc1S(=O)(=O)Nc1ccc(F)c(-c2ccc3cn[nH]c3c2)c1F [Example 2BY, 5-chloro-N-(2,4-difluoro-3-(1H-indazol-6-yl)-phenyl)-2-methoxypyridine-3-sulfonamide]",IC50,500 to 2500 nM
"COc1ncc(Cl)cc1S(=O)(=O)Nc1ccc(F)c(-c2ccc3c(-c4ccn[nH]4)n[nH]c3c2F)c1F [Example 2BZ, 5-chloro-N-(2,4-difluoro-3-(7-fluoro-3-(1H-pyrazol-5-yl)-1H-indazol-6-yl)phenyl)-2-methoxypyridine-3-sulfonamide]",IC50,< 500 nM
"Cn1cc(S(=O)(=O)Nc2ccc(F)c(-c3ccc4c(-c5ncc[nH]5)n[nH]c4c3F)c2F)cn1 [Example 2C, N-(2,4-difluoro-3-(7-fluoro-3-(1H-imidazol-2-yl)-1H-indazol-6-yl)phenyl)-1-methyl-1H-pyrazole-4-sulfonamide]",IC50,2500 to 10000 nM
COc1ncc(Cl)cc1S(=O)(=O)Nc1ccc(F)c(-c2ccc3c(-c4ncc[nH]4)n[nH]c3c2)n1 [Example 2CA],IC50,500 to 2500 nM
"COc1ncc(Cl)cc1S(=O)(=O)Nc1ccnc(-c2ccc3c(-c4ncc[nH]4)n[nH]c3c2)c1F [Example 2CB, N-(2-(3-(1H-imidazol-2-yl)-1H-indazol-6-yl)-3-fluoro-pyridin-4-yl)-5-chloro-2-methoxypyridinc-3-sulfonamide]",IC50,< 500 nM
"Cc1n[nH]c2cc(-c3c(F)ccc(NS(=O)(=O)c4cc(F)ccc4F)c3F)ccc12 [Example 2CC, N-(2,4-difluoro-3-(3-methyl-1H-indazol-6-yl)phenyl)-2,5-difluorobenzenesulfonamide]",IC50,2500 to 10000 nM
"COc1ncc(Cl)cc1S(=O)(=O)Nc1ccc(F)c(-c2ccc3c(-c4ccccn4)n[nH]c3c2F)c1F [Example 2CD, 5-chloro-N-(2,4-difluoro-3-(7-fluoro-3-(pyridin-2-yl)-1H-indazol-6-yl)phenyl)-2-methoxypyridine-3-sulfonamide]",IC50,500 to 2500 nM
O=S(=O)(Nc1ccc(F)c(-c2ccc3c(-c4ncc[nH]4)n[nH]c3c2F)c1F)c1cncc(Cl)c1 [Example 2CE],IC50,< 500 nM
"COc1ncc(Cl)cc1S(=O)(=O)Nc1ccc(F)c(-c2ccc3c(C(=O)NCCN(C)C)n[nH]c3c2F)c1F [Example 2CF, 6-(3-((5-chloro-2-methoxy-pyridine)-3-sulfonamido)-2,6-difluorophenyl)-N-(2-(di-methylamino)ethyl)-7-fluoro-1H-indazole-3-carboxamide]",IC50,< 500 nM
"COc1ncc(Cl)cc1S(=O)(=O)Nc1ccc(F)c(-c2ccc3c(C(=O)NCCCN(C)C)n[nH]c3c2F)c1F [Example 2CG, 6-(3-((5-chloro-2-methoxy-pyridine)-3-sulfonamido)-2,6-difluorophenyl)-N-(3-(di-methylamino)propyl)-7-fluoro-1H-indazole-3-carboxamide]",IC50,< 500 nM
"COc1ncc(Cl)cc1S(=O)(=O)Nc1ccc(F)c(-c2ccc3c(C(=O)NCCO)n[nH]c3c2F)c1F [Example 2CH, 6-(3-((5-chloro-2-methoxy-pyridine)-3-sulfonamido)-2,6-difluorophenyl)-7-fluoro-N-(2-hydroxyethyl)-1H-indazole-3-carboxamide]",IC50,< 500 nM
"COc1ncc(Cl)cc1S(=O)(=O)Nc1ccc(F)c(-c2ccc3c(C(=O)NCCCO)n[nH]c3c2F)c1F [Example 2CI, 6-(3-((5-chloro-2-methoxy-pyridine)-3-sulfonamido)-2,6-difluorophenyl)-7-fluoro-N-(3-hydroxypropyl)-1H-indazole-3-carboxamide]",IC50,< 500 nM
"COc1ncc(Cl)cc1S(=O)(=O)Nc1ccc(F)c(-c2ccc3c(C(=O)NCC(C)C)n[nH]c3c2F)c1F [Example 2CJ, 6-(3-((5-chloro-2-methoxy-pyridine)-3-sulfonamido)-2,6-difluorophenyl)-7-fluoro-N-isobutyl-1H-indazole-3-carboxamide]",IC50,< 500 nM
"COc1ncc(Cl)cc1S(=O)(=O)Nc1ccc(F)c(-c2ccc3c(C(=O)NC(C)C)n[nH]c3c2F)c1F [Example 2CK, 6-(3-((5-chloro-2-methoxy-pyridine)-3-sulfonamido)-2,6-difluorophenyl)-7-fluoro-N-isopropyl-1H-indazole-3-carboxamide]",IC50,< 500 nM

# Source: patent publication US20220388964A1 (HiberCell, Inc., priority 2019, published 2022)
